Assay results taken from ChEMBL document CHEMBL5120960, “Unveiling the Structure-Activity Relationships at the Orthosteric Binding Site of P2X Ion Channels: The Route to Selectivity” (J Med Chem, 2022).

Key:
Type in all cases: cell-based
[1] = molecular target: T1, P2X2/P2X3 heterotrimeric receptor (Homo sapiens, UniProt P56373+Q9UBL9); test: […] activity at human P2X2R/P2X3R expressing CHO cells assessed as reduction in intracellular Ca2+ influx pretreated with Fluo-4 for 1 hr followed by compound addition and further incubated for 30 mins in presence of ATP by multimode plate reader analysis
T1 sequence (Q9UBL9 whole entry): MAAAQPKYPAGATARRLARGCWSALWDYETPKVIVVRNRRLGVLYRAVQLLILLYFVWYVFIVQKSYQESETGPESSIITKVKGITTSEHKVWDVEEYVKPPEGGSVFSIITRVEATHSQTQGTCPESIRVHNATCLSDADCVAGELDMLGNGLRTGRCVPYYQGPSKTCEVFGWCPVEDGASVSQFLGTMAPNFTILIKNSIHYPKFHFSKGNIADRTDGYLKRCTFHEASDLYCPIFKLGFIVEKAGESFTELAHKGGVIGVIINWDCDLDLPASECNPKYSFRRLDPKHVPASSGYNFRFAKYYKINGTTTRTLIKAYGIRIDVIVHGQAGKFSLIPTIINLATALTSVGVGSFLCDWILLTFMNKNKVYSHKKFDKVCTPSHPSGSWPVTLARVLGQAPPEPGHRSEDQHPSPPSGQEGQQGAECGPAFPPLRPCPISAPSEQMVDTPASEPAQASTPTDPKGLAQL
T1 sequence (P56373 whole entry): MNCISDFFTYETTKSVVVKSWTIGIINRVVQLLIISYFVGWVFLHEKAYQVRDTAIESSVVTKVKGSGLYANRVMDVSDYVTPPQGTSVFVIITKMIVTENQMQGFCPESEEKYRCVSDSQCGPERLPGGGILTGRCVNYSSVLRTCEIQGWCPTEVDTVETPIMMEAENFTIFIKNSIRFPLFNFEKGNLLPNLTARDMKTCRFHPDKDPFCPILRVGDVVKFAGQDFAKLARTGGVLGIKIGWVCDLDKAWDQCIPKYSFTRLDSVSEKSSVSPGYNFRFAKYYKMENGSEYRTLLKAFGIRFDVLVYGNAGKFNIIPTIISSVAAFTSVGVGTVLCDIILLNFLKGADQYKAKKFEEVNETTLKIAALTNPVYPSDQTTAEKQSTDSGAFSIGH

P2X purinoceptor 7 [2] = molecular target: T2, P2X purinoceptor 7 (Homo sapiens, UniProt Q99572); test: […] activity at human P2X7R expressed in HEK293 cells assessed as reduction in YO-PRO-1 iodide dye uptake preincubated for 30 mins followed by YO-PRO-1 iodide addition and measured after 2 hrs by fluorescence based multimode plate reader analysis
T2 sequence (Q99572 whole entry): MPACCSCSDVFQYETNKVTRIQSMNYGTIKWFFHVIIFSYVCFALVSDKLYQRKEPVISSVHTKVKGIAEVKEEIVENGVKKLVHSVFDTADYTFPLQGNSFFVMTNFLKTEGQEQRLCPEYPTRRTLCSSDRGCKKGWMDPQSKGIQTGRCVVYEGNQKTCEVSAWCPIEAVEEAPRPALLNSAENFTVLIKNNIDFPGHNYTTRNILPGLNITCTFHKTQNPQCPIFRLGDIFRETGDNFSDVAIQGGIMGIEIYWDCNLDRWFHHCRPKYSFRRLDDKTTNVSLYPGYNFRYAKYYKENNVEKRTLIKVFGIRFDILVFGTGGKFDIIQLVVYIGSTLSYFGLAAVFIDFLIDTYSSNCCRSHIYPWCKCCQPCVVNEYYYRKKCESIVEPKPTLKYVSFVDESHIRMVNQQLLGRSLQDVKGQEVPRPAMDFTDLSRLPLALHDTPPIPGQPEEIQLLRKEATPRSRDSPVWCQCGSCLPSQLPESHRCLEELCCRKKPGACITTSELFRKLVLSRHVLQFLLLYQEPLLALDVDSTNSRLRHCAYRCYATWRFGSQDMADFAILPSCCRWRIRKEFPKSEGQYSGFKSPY

P2X purinoceptor 2 [3] = molecular target: T3, P2X purinoceptor 2 (Homo sapiens, UniProt Q9UBL9); test: […] activity at human P2X2R expressing CHO cells assessed as reduction in intracellular Ca2+ influx pretreated with Fluo-4 for 1 hr followed by compound addition and further incubated for 30 mins in presence of ATP by multimode plate reader analysis
T3 sequence (Q9UBL9 whole entry): T1 sequence (Q9UBL9 whole entry)

P2X purinoceptor 7 [4] = molecular target: T2, P2X purinoceptor 7; test: Antagonist activity at human P2X7R expressing HEK293 cells assessed as reduction in intracellular Ca2+ influx pretreated with Fluo-4 for 1 hr followed by compound addition and further incubated for 30 mins in presence of ATP by multimode plate reader analysis
[5] = molecular target: T1, P2X2/P2X3 heterotrimeric receptor; test: Antagonist activity at human P2X2R/P2X3R expressing CHO cells assessed as reduction in intracellular Ca2+ influx pretreated with Fluo-4 for 1 hr followed by compound addition and further incubated for 30 mins in presence of ATP by multimode plate reader analysis
P2X purinoceptor 3 [6] = molecular target: T4, P2X purinoceptor 3 (Homo sapiens, UniProt P56373); test: Antagonist activity at human P2X3R expressing CHO cells assessed as reduction in intracellular Ca2+ influx pretreated with Fluo-4 for 1 hr followed by compound addition and further incubated for 30 mins in presence of ATP by multimode plate reader analysis
T4 sequence (P56373 whole entry): T1 sequence (P56373 whole entry)

P2X purinoceptor 4 [7] = molecular target: T5, P2X purinoceptor 4 (Homo sapiens, UniProt Q99571); test: Antagonist activity at human P2X4R expressing HEK293 cells assessed as reduction in intracellular Ca2+ influx pretreated with Fluo-4 for 1 hr followed by compound addition and further incubated for 30 mins in presence of ATP by multimode plate reader analysis
T5 sequence (Q99571 whole entry): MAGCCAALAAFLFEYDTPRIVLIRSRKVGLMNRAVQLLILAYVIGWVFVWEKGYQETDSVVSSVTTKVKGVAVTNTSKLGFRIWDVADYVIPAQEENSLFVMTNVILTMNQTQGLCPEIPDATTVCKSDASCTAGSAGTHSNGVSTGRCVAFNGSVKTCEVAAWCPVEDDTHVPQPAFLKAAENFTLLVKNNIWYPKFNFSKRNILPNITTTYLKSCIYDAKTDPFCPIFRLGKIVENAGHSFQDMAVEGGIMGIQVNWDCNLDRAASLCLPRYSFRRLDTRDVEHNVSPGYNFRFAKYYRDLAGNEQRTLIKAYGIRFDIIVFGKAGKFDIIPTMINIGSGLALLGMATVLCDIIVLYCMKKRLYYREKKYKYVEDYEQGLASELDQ

P2X purinoceptor 2 [8] = molecular target: T3, P2X purinoceptor 2; test: Antagonist activity at human P2X2R expressing CHO cells assessed as reduction in intracellular Ca2+ influx pretreated with Fluo-4 for 1 hr followed by compound addition and further incubated for 30 mins in presence of ATP by multimode plate reader analysis
P2X purinoceptor 1 [9] = molecular target: T6, P2X purinoceptor 1 (Homo sapiens, UniProt P51575); test: […] activity at human P2X1R expressing CHO cells assessed as reduction in intracellular Ca2+ influx pretreated with Fluo-4 for 1 hr followed by compound addition and further incubated for 30 mins in presence of ATP by multimode plate reader analysis
T6 sequence (P51575 whole entry): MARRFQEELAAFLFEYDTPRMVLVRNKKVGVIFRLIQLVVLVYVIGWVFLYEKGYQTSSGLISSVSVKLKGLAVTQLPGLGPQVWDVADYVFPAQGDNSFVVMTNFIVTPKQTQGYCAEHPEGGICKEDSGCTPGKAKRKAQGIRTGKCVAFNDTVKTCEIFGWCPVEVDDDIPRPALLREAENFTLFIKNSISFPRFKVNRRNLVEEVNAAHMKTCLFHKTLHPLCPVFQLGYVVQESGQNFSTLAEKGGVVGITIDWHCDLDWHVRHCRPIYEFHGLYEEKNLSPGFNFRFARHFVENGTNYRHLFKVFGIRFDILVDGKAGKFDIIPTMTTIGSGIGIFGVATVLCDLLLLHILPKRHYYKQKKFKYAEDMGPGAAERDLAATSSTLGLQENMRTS

P2X purinoceptor 7 [10] = molecular target: T2, P2X purinoceptor 7; test: […] activity at human P2X7R expressing HEK293 cells assessed as reduction in intracellular Ca2+ influx pretreated with Fluo-4 for 1 hr followed by compound addition and further incubated for 30 mins in presence of ATP by multimode plate reader analysis
P2X purinoceptor 1 [11] = molecular target: T6, P2X purinoceptor 1; test: Antagonist activity at human P2X1R expressing CHO cells assessed as reduction in intracellular Ca2+ influx pretreated with Fluo-4 for 1 hr followed by compound addition and further incubated for 30 mins in presence of ATP by multimode plate reader analysis
P2X purinoceptor 3 [12] = molecular target: T4, P2X purinoceptor 3; test: […] activity at human P2X3R expressing CHO cells assessed as reduction in intracellular Ca2+ influx pretreated with Fluo-4 for 1 hr followed by compound addition and further incubated for 30 mins in presence of ATP by multimode plate reader analysis
P2X purinoceptor 4 [13] = molecular target: T5, P2X purinoceptor 4; test: […] activity at human P2X4R expressing HEK293 cells assessed as reduction in intracellular Ca2+ influx pretreated with Fluo-4 for 1 hr followed by compound addition and further incubated for 30 mins in presence of ATP by multimode plate reader analysis

| SMILES | EC50 [1] [µM] | EC50 (P2X purinoceptor 7 [2]) [µM] | EC50 (P2X purinoceptor 2 [3]) [µM] | IC50 (P2X purinoceptor 7 [4]) [µM] | IC50 [5] [µM] | IC50 (P2X purinoceptor 3 [6]) [µM] | IC50 (P2X purinoceptor 4 [7]) [µM] | IC50 (P2X purinoceptor 2 [8]) [µM] | EC50 (P2X purinoceptor 1 [9]) [µM] | EC50 (P2X purinoceptor 7 [10]) [µM] | IC50 (P2X purinoceptor 1 [11]) [µM] | EC50 (P2X purinoceptor 3 [12]) [µM] | EC50 (P2X purinoceptor 4 [13]) [µM] | IC50 [1] [µM] | IC50 (P2X purinoceptor 7 [2]) [µM] | IC50 (P2X purinoceptor 2 [3]) [µM] | IC50 (P2X purinoceptor 1 [9]) [µM] | IC50 (P2X purinoceptor 7 [10]) [µM] | IC50 (P2X purinoceptor 3 [12]) [µM] | IC50 (P2X purinoceptor 4 [13]) [µM] |
| --- | --- | --- | --- | --- | --- | --- | --- | --- | --- | --- | --- | --- | --- | --- | --- | --- | --- | --- | --- | --- |
| Nc1ncnc2c1ncn2[C@@H]1O[C@H](COP(=O)(O)OP(=O)(O)OP(=O)(O)O)[C@@H](OC(=O)c2cccc3ccccc23)[C@H]1OC(=O)c1cccc2ccccc12 | > 100 | 22.4 | > 100 | > 100 | 11.5 | 18.6 | 6.31 | 10 | > 100 | 16.6 | 15.8 | > 100 | > 100 |  |  |  |  |  |  |  |
| COc1ccc(C(=O)O[C@@H]2[C@H](OC(=O)c3ccc(OC)cc3)[C@@H](COP(=O)(O)OP(=O)(O)OP(=O)(O)O)O[C@H]2n2cnc3c(N)ncnc32)cc1 |  |  |  | > 100 | > 100 | > 100 | > 100 | > 100 |  |  | > 100 |  |  | > 100 | > 100 | > 100 | > 100 | > 100 | > 100 | > 100 |
